Measurements as given in patent publication US20060116325A1, “Methods and compositions for inhibiting hiv-coreceptor interactions” (priority 2001, published 2006).

How the values were obtained:
[1] = molecular target: T1, CXCR4 (Homo sapiens, UniProt P61073); experiment: Competition with radiolabeled SDF-1α binding to HEK-CXCR4 cells; parameters: host or cells: CEMx174 (174xCEM); details: high concentrations (e.g., 100 μM) of peptide required, FIG. 1
Method: (§1) Binding assays were performed with HEK-CCR5 or HEK CXCR4 in triplicate by adding unlabeled competitor (anti-coreceptor binding peptide or control chemokine) and radiolabeled chemokine, 0.2 ng/ml (^125I-MIP-1β or SDF-1α, specific activity 2000 Ci/mmol, NEN Life Science Products) to a cell suspension (4×10^5 cells in 200 μl) in RPMI 1640 supplemented with 1% bovine serum albumin and 25 mM HEPES pH 8.0 (binding medium). Cells were then incubated at 22° C. for 40 min with continuous rotation. After incubation cells were transferred to the tubes containing 800 μl of 10% sucrose in PBS and harvested by centrifugation. The supernatant was aspirated and the cell-associated radioactivity was measured using a 1272 Wallac gamma counter. […] After incubation cells were transferred to the tubes containing 800 μl of 10% sucrose in PBS and harvested by centrifugation, the supematant was aspirated and the cell-associated radioactivity was measured using a 1272 Wallac gamma counter. The data were analyzed by nonlinear regression using the computer program GraphPad Prizm 3.0.
(§2) Considering that the 15K and 15D peptides were designed in part based on their structural similarity to corresponding chemokine fragments, the binding activity of these peptides for CCR5 and/or CXCR4 receptors, and corresponding anti-coreceptor binding activity against chemokines, was assessed.

[2] = molecular target: T2, CCR5 (Homo sapiens, UniProt P51681); experiment: Competition with 125I-MIP-1β binding to HEK-CCR5 cells; parameters: expressed in transfected cells; host or cells: HEK-293; details: high concentrations (e.g., 100 μM) of peptide required, FIG. 1
Method: as §1, §2

[3] = molecular target: T1, CXCR4; experiment: Binding of anti-CXCR4 antibody 12G5 to CEMx174 cells (flow cytometry); parameters: host or cells: CEMx174 (174xCEM); details: for inhibition of 12G5 antibody binding to CXCR4: CEMx174 cells, preincubation 60 min 22° C., FIG. 5
Method: FIG. 5A. Dose dependent effect of peptide 15K in comparison with SDF-1α. FIG. 5B. The comparison of the effects of 15K and 15D. FIG. 5C. The comparison of the effects of 15K and 15KS. Cells were preincubated at 22° C. with peptides at designated concentrations of SDF-1α for 60 min. Then cells were incubated with FITC-labeled anti-human CXCR4 monoclonal antibodies 12G5 for 40 min at 22° C. and washed with FACS buffer prior to flow cytometry.
CEMx174 cells were pelleted and resuspended at 10^6 cells/ml in PBS containing 1% BSA and 0.1% sodium azide (FACS buffer). Cells were then preincubated with designated concentrations of peptides or SDF-1-α (1 μg/ml) at 22° C. for 60 min. FITC-labeled anti-human CXCR4 antibody (clone 12G5, BD PharMingen, San Diego, Calif.) was added to the cells per the manufactures instructions and further incubated at 22° C. for 40 minutes. Cells were extensively washed with FACS buffer and analyzed using a FACS Calibur flowcytometer (Becton Dickinson). HEK/CCR5 cells were suspended in Dulbecco's PBS containing 1% FCS and 0.05% NaN3 (10^4 cells in 100 μl) and incubated with or without 5 μg of MIP-1β (PeproTech, Rocky Hill, N.J.), 0.1 mM peptide 15D or 15K for 45 min at 22° C. Cells were then treated with FITC-conjugated anti-human CCR5 antibody (2D7; BD PharMingen, San Diego, Calif.), and incubated for 30 min at 22° C. Cells were washed twice, and analyzed using a FACScan flow cytometer (Becton Dickinson Immunocytometry Systems, San Jose, Calif.).
To determine if peptides 15D and 15K interact directly with chemokine receptors the effect of these and control peptides on the binding of anti-chemokine receptor antibodies to CXCR4 and CCR5 was studied. The monoclonal antibody 12G5 recognizes a conformational extracellular epitope on CXCR4. This antibody blocks the infectivity of some X4 strains of HIV-1 and HIV-2 (Endres et al., Cell 87:745-756, 1996; Hoxie et al., J. Reprod. Immunol. 41:197-211(1998); McKnight et al., J. Virol. 74:1692-1696(1997), 19, 26). […] Further, the binding of 12G5 to CXCR4 receptor-expressing cells is prevented by anti-HIV compounds. […] 73:2752-2761, 1999. To determine the importance of the particular amino acid sequence of the inhibitory activity of the peptides. The effects of peptide 15K and the corresponding scrambled peptide 15KS on binding of 12G5 to CXCR4 was compared. […] Apparently there is a direct correlation between the ability of 15K to inhibit the anti-CXCR4 antibody binding and its ability to inhibit HIV-1 infectivity since the scrambled peptide 15KS with the same amino acid comparison has reduced ability to manifest both these activities.

[4] = molecular target: T2, CCR5; experiment: Chemotaxis of HEK-CCR5 cells to RANTES (microchemotaxis chamber); type: cell-based; parameters: expressed in transfected cells; host or cells: HEK-293; details: for inhibition of RANTES-directed chemotactic response / induction of chemotaxis by peptide alone: HEK-CCR5 cells; for inhibition of RANTES-directed chemotactic response: RANTES 100 ng/ml, 3 hr; for induction of chemotaxis by peptide alone: tested at any concentration
Method: Migration of HEK-CCR5 cells to RANTES alone, or the combination of RANTES and designated concentrations of either 15K or 15D peptides, were determined in micro-chemotaxis chambers. […] The results are representative of three independent experiments. *p<0.05.
Chemotaxis assays for HEK-293 cells transfected with CCRS was performed as previously described (Howard et al., J. Biol. Chem. 274:16228-16234, 1999, incorporated herein by reference). Briefly, the chemokine RANTES, diluted in binding medium to 100 ng/ml, was placed in the lower wells of a microchemotaxis chamber. Polycarbonate membrane pretreated with rat tail collagen type 1 was placed over the chemokine solution. The cells (1×10^6/ml) were suspended in binding medium along with the exemplary peptides 15D or 15K at designated concentrations and placed in the upper wells of the chamber. After incubation for 3 hr the membrane was removed, stained using a Diff-Quik kit (Trends Scientific, Kalamazoo, Mich.) and counted. The results are expressed as the “chemotaxis index”, which represents the ratio of the number of cells in high powered field in test versus control samples.
To achieve this goal, the capacity of these peptides to inhibit the chemotactic response of HEK-CCR5 cells to a cognate ligand of CCR5 receptors, the chemokine RANTES, was assayed.

T1 sequence (P61073 whole entry): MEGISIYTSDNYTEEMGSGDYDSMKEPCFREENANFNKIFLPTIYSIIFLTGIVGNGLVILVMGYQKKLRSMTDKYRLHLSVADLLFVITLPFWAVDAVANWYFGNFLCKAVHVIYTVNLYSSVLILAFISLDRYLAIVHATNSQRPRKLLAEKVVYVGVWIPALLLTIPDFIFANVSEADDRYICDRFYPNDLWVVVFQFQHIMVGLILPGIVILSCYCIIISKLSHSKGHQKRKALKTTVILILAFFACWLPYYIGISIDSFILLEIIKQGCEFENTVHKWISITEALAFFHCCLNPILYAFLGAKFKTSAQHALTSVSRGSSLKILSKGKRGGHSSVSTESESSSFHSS
T2 sequence (P51681 whole entry): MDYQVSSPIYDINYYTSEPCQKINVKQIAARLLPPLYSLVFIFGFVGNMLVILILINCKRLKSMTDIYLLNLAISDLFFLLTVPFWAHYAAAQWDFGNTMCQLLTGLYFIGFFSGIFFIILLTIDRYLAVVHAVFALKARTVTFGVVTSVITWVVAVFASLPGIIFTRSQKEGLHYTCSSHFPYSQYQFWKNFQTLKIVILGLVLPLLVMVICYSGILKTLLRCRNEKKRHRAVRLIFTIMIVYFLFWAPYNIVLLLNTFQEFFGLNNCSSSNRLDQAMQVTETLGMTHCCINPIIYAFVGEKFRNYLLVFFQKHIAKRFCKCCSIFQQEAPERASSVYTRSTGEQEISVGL

I R K A H C N I S R A D W N D [Peptide 15D]
inhibition of radiolabeled SDF-1α binding to cells expressing CXCR4 [1]: significantly inhibit chemokine binding
inhibition of radiolabeled MIP-1β binding to cells expressing CCR5 [2]: significantly inhibit chemokine binding
inhibition of 12G5 antibody binding to CXCR4 [3]: less effective
inhibitory activity on chemotaxis, one peptide compared with the other ([4]; 15D versus 15K, FIG. 2): consistently exhibited greater inhibitory activity
inhibition of RANTES-directed chemotactic response ([4]; FIG. 2): completely blocked
induction of chemotaxis by peptide alone [4]: did not induce detectable chemotaxis

IRKAHCNISRAKWND [Peptide 15K]
inhibition of radiolabeled SDF-1α binding to cells expressing CXCR4 [1]: significantly inhibit chemokine binding
inhibition of radiolabeled MIP-1β binding to cells expressing CCR5 [2]: significantly inhibit chemokine binding
inhibition of 12G5 antibody binding to CXCR4 [3]: inhibited the binding of the 12G5 antibody to CXCR4 in a dose-dependent manner
inhibition of 12G5 antibody binding compared with SDF-1α ([3]; peptide at 50 μg/ml versus SDF-1α, FIG. 5A): approached the efficacy of SDF-1α
inhibition of RANTES-directed chemotactic response ([4]; FIG. 2): completely blocked
induction of chemotaxis by peptide alone [4]: did not induce detectable chemotaxis
